# Reference: patent publication US20240041047A1, “ENHANCED ANTIMICROBIAL EFFICACY (SYNERGY) OF SILVER AND COPPER COMPOUNDS AND MEDICAL USE OF THEIR COMBINATIONS” (Nanordica Medical OÜ, priority 2021, published 2024)
# What was measured:
# E. coli K-12 (G−) = assay: MBC of Ag NPs, Cu compounds and combinations, 24 h incubation, plated on agarized broth; assay type: cell-based, Escherichia coli
# E. coli ESBL (G−) = assay: as above; assay type: cell-based, Escherichia coli
# [1] = tested on: S. aureus ATCC 25923 (G+); assay: as above; assay type: cell-based, Staphylococcus aureus
# [2] = tested on: Gram-negative and Gram-positive bacteria commonly colonizing wounds; assay: Antibacterial synergy K(Syn) of Ag and Cu compounds across bacterial strains (FIG. 3, FIG. 5); assay type: cell-based
# Protocol: FIGS. 3A and 3B show the synergistic effect of CuO NPs and CuSO4 with Ag NPs (A) or AgNO3 (B) to a range of Gram-negative and Gram-positive bacteria commonly colonizing wounds. Bacterial suspension was incubated with Ag NPs, CuO NPs, respective ions or their combinations for 24 h, plated on agarized broth, and MBC was determined.
# In order to quantify and compare the synergistic effect between different Ag and Cu compounds and among various bacterial strains, we introduced the term “Coefficient of antimicrobial synergy”, K(Syn), showing the antimicrobial efficiency of Ag compound and Cu compound combinations (mix) compared to the sum of the MBC values of individual compounds and calculated as follows: […]
# In order to quantify and compare the synergistic effect between different Ag NPs and Copper compounds among various bacterial strains, we introduced the term “Coefficient of antibacterial synergy”, K(Syn), showing the antimicrobial efficiency of Ag- and copper compound combinations (mix) compared to the sum of the MBC values of individual Ag- and Cu compounds and calculated as follows: […]
# Bacterial suspensions were incubated with Ag NPs, CuO NPs, respective ions or their combinations for 24 h, plated on agarized broth, and MBC was determined. […]
# P. aeruginosa PAO1 (G−) = assay: MBC of Ag NPs, Cu compounds and combinations, 24 h incubation, plated on agarized broth; assay type: cell-based, Pseudomonas aeruginosa
# [3] = tested on: S. dysgalacticae DSM 23147 (G+); assay: as above; assay type: cell-based
# [4] = tested on: E. faecalis ATCC 29212 (G+); assay: as above; assay type: cell-based, Enterococcus faecalis
SMILES,"K (Syn) (E. coli K-12 (G−); E. coli K-12, Cu compound + Ag NPs)","MBC (CuX) in combination (E. coli K-12 (G−); E. coli K-12, Cu compound in combination with Ag NPs)","MBC alone (E. coli K-12 (G−); E. coli K-12, compound alone)",K (Syn) (E. coli ESBL (G−); Cu compound + Ag NPs),MBC (CuX) in combination (E. coli ESBL (G−); Cu compound in combination with Ag NPs),MBC alone (E. coli ESBL (G−); compound alone),"K (Syn) ([1]; S. aureus ATCC 25923, Cu compound + Ag NPs)","MBC (CuX) in combination ([1]; S. aureus ATCC 25923, Cu compound in combination with Ag NPs)","MBC alone ([1]; S. aureus ATCC 25923, compound alone)","synergy with Ag NPs, K(Syn), ranking among Cu compounds ([2]; all tested bacterial strains (FIG. 3A))","K (Syn) (P. aeruginosa PAO1 (G−); P. aeruginosa PAO1, Cu compound + Ag NPs)","MBC (CuX) in combination (P. aeruginosa PAO1 (G−); P. aeruginosa PAO1, Cu compound in combination with Ag NPs)","MBC alone (P. aeruginosa PAO1 (G−); P. aeruginosa PAO1, compound alone)","K (Syn) ([3]; S. dysgalacticae DSM 23147, Cu compound + Ag NPs)","MBC (CuX) in combination ([3]; S. dysgalacticae DSM 23147, Cu compound in combination with Ag NPs)","MBC alone ([3]; S. dysgalacticae DSM 23147, compound alone)","K (Syn) ([4]; E. faecalis ATCC 29212, Cu compound + Ag NPs)","MBC (CuX) in combination ([4]; E. faecalis ATCC 29212, Cu compound in combination with Ag NPs)","MBC alone ([4]; E. faecalis ATCC 29212, compound alone)",synergistic effect with Cu compounds compared with Ag NPs ([2]; ionic silver used instead of Ag NPs (FIG. 3B))
O=S(=O)([O-])[O-].[Cu+2] [CuSO4],5.055 ± 0.383,22.5 ± 16.3 µg/mL,217.6 ± 72.8 µg/mL,4.727 ± 0.63,25 ± 0 µg/mL,200 ± 0 µg/mL,3.659 ± 1.083,16.25 ± 8.39 µg/mL,90 ± 22.36 µg/mL,highest,2.783 ± 0.687,20 ± 6.85 µg/mL,720 ± 178.9 µg/mL,3.909 ± 0.832,12.5 ± 0 µg/mL,133.3 ± 57.7 µg/mL,4.254 ± 0.977,20.83 ± 7.22 µg/mL,200 ± 0 µg/mL,–
"O=[N+]([O-])[O-].[Ag+] [AgNO3, reference compound]",–,–,–,–,–,–,–,–,–,–,–,–,–,–,–,–,–,–,–,considerably lower
